Source: ChEMBL document CHEMBL1147814, “Discovery of SB-705498: a potent, selective and orally bioavailable TRPV1 antagonist suitable for clinical development” (Bioorg Med Chem Lett, 2006)
≈ marks a conversion by molar mass, not a printed value. Each block holds one molecule with its values, some of them ahead of it. Calls of active or inactive are those of the source. The calls are words filed in the database; no cut-off is given here.

Legend:
Liver microsomes = assay: (§1) Intrinsic clearance in human liver microsomes; assay type: ADME, Microsome; conditions: microsomes
[1] = Aqueous solubility of the compound; assay type: physicochemical
[2] = biological target: Transient receptor potential cation channel subfamily V member 1 (Rattus norvegicus) (UniProt O35433); assay: Antagonist activity against capsaicin-mediated activation of rat TRPV1 by FLIPR; assay type: functional
[3] = as §1; assay type: ADME, Microsome; conditions: liver microsomes
[4] = biological target: Transient receptor potential cation channel subfamily V member 1 (Homo sapiens) (UniProt Q8NER1); assay: Blockade of heat activated human TRPV1 at 1 uM; assay type: functional
[5] = biological target: Transient receptor potential cation channel subfamily V member 1 (Homo sapiens) (UniProt Q8NER1); assay: Blockade of pH activated human TRPV1 at 1 uM; assay type: functional
[6] = biological target: Transient receptor potential cation channel subfamily V member 1 (Homo sapiens) (UniProt Q8NER1); assay: Inhibition of heat-mediated activation of human TRPV1 in HEK293 cells at 1 uM by patch clamp method
[7] = biological target: Transient receptor potential cation channel subfamily V member 1 (Cavia porcellus) (UniProt Q6R5A3); assay: Antagonist activity against capsaicin-mediated activation of guinea pig TRPV1 by FLIPR; assay type: functional
Cavia porcellus = species: Cavia porcellus; assay: Intrinsic clearance in guinea pig liver microsomes; assay type: ADME, Microsome
Canis familiaris = species: Canis familiaris; assay: Intrinsic clearance in dog liver microsomes; assay type: ADME, Canis lupus familiaris, Microsome
[8] = Clearance in rat; assay type: ADME, organism-based; conditions: in vivo
[9] = Clearance in guinea pig; assay type: ADME, organism-based, Cavia porcellus; conditions: in vivo
[10] = Clearance in dog; assay type: ADME, organism-based, Canis lupus familiaris; conditions: in vivo
[11] = Volume of distribution in rat; assay type: ADME, organism-based; conditions: in vivo, read-out: Vdss
[12] = Volume of distribution in guinea pig; assay type: ADME, organism-based, Cavia porcellus; conditions: in vivo, read-out: Vdss
[13] = Volume of distribution in dog; assay type: ADME, organism-based, Canis lupus familiaris; conditions: in vivo, read-out: Vdss
[14] = Half life in rat; assay type: ADME, organism-based; conditions: in vivo
[15] = Half life in guinea pig; assay type: ADME, organism-based, Cavia porcellus; conditions: in vivo
[16] = Half life in dog; assay type: ADME, organism-based, Canis lupus familiaris; conditions: in vivo
[17] = Bioavailability in rat at 3 mg/kg, po; assay type: ADME, organism-based; conditions: in vivo
[18] = Bioavailability in guinea pig at 1 mg/kg, po; assay type: ADME, organism-based, Cavia porcellus; conditions: in vivo
[19] = Bioavailability in dog at 3 mg/kg, po; assay type: ADME, organism-based, Canis lupus familiaris; conditions: in vivo
[20] = biological target: Transient receptor potential cation channel subfamily V member 1 (Cavia porcellus) (UniProt Q6R5A3); assay: Activity against adjuvant-induced arthritis assessed as reversal of allodynia in guinea pig at 10 mg/kg, po; assay type: functional, organism-based; set-up: dose 10 mg/kg
[21] = Solubility in stimulated gastric fluid; assay type: physicochemical; conditions: simulated gastric fluid
[22] = biological target: Transient receptor potential cation channel subfamily V member 1 (Homo sapiens) (UniProt Q8NER1); assay: Inhibition of capsaicin-mediated activation of human TRPV1 in HEK293 cells at 1 uM by patch clamp method; assay type: functional, cell-based
[23] = biological target: Transient receptor potential cation channel subfamily V member 1 (Rattus norvegicus) (UniProt O35433); assay: Activity against capsaicin-induced secondary hyperalgesia assessed as reversal of allodynia in rat at 10 mg/kg, po after 2 hrs; assay type: functional, organism-based; set-up: dose 10 mg/kg
[24] = biological target: Transient receptor potential cation channel subfamily V member 1 (Rattus norvegicus) (UniProt O35433); assay: Activity against capsaicin-induced secondary hyperalgesia assessed as reversal of allodynia in rat at 30 mg/kg, po after 2 hrs; assay type: functional, organism-based; set-up: dose 30 mg/kg

Chain of Transient receptor potential cation channel subfamily V member 1 (Rattus norvegicus) (O35433 whole entry): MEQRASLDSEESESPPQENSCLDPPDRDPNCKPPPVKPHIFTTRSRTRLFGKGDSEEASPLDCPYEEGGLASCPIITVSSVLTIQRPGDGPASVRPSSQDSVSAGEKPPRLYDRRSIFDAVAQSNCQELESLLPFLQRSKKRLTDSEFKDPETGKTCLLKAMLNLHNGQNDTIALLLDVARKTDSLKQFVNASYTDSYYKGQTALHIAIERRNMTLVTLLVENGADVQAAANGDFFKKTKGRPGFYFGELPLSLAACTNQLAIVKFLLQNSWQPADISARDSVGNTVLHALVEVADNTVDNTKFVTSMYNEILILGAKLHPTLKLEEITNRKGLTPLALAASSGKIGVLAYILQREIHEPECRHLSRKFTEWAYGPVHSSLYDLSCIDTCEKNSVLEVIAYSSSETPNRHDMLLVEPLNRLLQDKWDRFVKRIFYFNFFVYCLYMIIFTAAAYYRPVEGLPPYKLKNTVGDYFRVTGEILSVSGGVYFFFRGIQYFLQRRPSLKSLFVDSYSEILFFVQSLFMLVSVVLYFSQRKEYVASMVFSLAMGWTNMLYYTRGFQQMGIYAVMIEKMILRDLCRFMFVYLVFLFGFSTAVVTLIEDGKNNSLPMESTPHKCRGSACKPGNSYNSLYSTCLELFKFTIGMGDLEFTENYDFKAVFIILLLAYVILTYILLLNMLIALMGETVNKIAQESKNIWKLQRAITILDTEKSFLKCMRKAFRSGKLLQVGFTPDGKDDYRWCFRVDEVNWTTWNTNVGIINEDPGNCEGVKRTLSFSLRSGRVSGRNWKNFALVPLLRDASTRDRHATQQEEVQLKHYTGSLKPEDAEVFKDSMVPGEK
Chain of Transient receptor potential cation channel subfamily V member 1 (Homo sapiens) (Q8NER1 whole entry): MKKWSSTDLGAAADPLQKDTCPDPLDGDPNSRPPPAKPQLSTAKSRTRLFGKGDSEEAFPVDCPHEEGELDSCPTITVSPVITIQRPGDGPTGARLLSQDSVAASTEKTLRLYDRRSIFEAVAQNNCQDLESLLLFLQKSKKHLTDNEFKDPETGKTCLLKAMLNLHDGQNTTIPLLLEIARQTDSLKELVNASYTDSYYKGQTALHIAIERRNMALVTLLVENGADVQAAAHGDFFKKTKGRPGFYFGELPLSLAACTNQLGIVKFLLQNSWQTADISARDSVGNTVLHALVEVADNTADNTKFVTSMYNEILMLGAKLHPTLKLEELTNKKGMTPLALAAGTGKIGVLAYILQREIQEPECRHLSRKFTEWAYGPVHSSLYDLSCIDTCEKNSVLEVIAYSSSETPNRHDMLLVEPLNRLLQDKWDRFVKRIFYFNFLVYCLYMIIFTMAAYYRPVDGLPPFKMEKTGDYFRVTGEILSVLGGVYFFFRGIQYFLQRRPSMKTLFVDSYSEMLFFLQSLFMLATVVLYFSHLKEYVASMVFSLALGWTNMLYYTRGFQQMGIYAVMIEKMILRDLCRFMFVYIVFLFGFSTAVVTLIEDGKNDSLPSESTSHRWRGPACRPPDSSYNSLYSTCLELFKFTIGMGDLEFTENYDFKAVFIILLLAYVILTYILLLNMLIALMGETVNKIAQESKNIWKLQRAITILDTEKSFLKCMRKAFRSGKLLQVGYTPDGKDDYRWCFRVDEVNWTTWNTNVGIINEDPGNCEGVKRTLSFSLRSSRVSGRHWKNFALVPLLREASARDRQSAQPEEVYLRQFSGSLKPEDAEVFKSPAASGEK
Chain of Transient receptor potential cation channel subfamily V member 1 (Cavia porcellus) (Q6R5A3 whole entry): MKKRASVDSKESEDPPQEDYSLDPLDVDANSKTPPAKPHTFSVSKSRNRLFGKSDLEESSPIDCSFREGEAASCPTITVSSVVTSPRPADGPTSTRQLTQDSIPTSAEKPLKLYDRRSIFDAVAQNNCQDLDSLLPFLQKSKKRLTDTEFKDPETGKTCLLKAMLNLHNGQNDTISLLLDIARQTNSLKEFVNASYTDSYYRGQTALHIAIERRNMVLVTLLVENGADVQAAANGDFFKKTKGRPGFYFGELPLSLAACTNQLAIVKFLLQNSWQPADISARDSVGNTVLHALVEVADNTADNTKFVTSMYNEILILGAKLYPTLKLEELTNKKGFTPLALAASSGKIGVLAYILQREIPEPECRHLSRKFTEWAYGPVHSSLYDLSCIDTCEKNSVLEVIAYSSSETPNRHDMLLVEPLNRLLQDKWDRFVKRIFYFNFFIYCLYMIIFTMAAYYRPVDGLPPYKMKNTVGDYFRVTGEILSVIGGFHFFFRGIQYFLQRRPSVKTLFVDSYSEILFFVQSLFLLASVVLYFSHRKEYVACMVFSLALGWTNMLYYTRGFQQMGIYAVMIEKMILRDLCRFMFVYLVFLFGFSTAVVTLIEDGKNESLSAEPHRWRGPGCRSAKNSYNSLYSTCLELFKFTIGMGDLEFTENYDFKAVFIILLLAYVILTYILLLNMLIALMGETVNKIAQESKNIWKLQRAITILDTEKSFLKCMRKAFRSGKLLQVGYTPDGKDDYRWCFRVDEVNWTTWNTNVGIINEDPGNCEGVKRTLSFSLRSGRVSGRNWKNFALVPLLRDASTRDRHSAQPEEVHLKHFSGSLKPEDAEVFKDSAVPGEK

Compound: CCN(CCNC(=O)Nc1ccccc1Br)c1cccc(C)c1
CLint scaled [3]: 41 mL/min/kg
pKb [2]: 7.8

Compound: O=C(Nc1ccccc1Br)N[C@@H]1CCN(c2cccc(F)c2)C1
CL (Liver microsomes): <= 4 ml/min/g
solubility [1]: < 100 µg/mL
pKb [2]: 7.8

Compound: Cc1ccc2c(c1)CCN2CCNC(=O)Nc1ccccc1Br
pKb [2]: 7.3

Compound: O=C(NCCN1CCc2ccccc21)Nc1ccccc1Br
pKb [2]: 6.8

Compound: Cc1cccc2c1CCN2CCNC(=O)Nc1ccccc1Br
pKb [2]: 7.4

Compound: O=C(NCCN1CCc2c(F)cccc21)Nc1ccccc1Br
pKb [2]: 7.4

Compound: Cc1ccc2c(c1)CCCN2CCNC(=O)Nc1ccccc1Br
CLint scaled [3]: > 45 mL/min/kg
pKb [2]: 7.4

Compound: O=C(Nc1ccccc1Br)N[C@@H]1CCN(c2ncccc2C(F)(F)F)C1
pKb [2]: 7.1

Compound: O=C(NCCN1CCc2cc(F)ccc21)Nc1ccccc1Br
CLint scaled [3]: 19 mL/min/kg
pKb [2]: 7.1

Results, then the molecule that gave them:

CL (Liver microsomes): <= 4 ml/min/g
solubility [1]: < 100 µg/mL
pKb [2]: 8.3
Compound: Cc1ccc(N2CC[C@@H](NC(=O)Nc3ccccc3Br)C2)cc1F

pKb [2]: 7.3
Compound: O=C(Nc1ccccc1Br)N[C@@H]1CCN(c2ccc(Cl)cn2)C1

pKb [2]: 7.2
Compound: O=C(Nc1ccccc1Br)N[C@@H]1CCN(c2ccc(Br)cn2)C1

CL (Liver microsomes): <= 4 ml/min/g
solubility [1]: < 100 µg/mL
pKb [2]: 7.7
Activity [4]: Active
Activity [5]: Active
Activity [6]: Active
Compound: Cc1cccc(N2CC[C@@H](NC(=O)Nc3ccccc3Br)C2)c1

pKb [2]: < 6.6
Compound: O=C(Nc1ccccc1Br)N[C@@H]1CCN(c2ccccn2)C1

pKb [2]: < 6.7
Compound: Cc1ccc(N2CC[C@@H](NC(=O)Nc3ccccc3Br)C2)nc1

pKb [2]: < 6.8
Compound: Cc1cccc(N2CC[C@H](NC(=O)Nc3ccccc3Br)C2)c1

pKb [2]: 6.9
Compound: O=C(Nc1ccccc1Br)N[C@@H]1CCN(c2cc(C(F)(F)F)ccn2)C1

pKb [7]: 7.3
CL (Cavia porcellus): 4.2 mL/min/g
CL (Canis familiaris): 0.9 mL/min/g
clearance [8]: 4 mL/min/kg
clearance [9]: 34 mL/min/kg
clearance [10]: 11 mL/min/kg
Vd [11]: 0.9 L/kg
Vd [12]: 3.6 L/kg
Vd [13]: 1.9 L/kg
half-life [14]: 3.1 h
half-life [15]: 2.6 h
half-life [16]: 3.4 h
bioavailability [17]: 86%
bioavailability [18]: 39%
bioavailability [19]: 42%
pKb [2]: 7.5
Activity [20]: 80%
solubility [21]: 400 µg/mL (≈ 932 µM)
inhibition [22]: 102%
Activity [4]: 97%
Activity [5]: 104%
Activity [23]: Active
Activity [24]: Active
Compound: O=C(Nc1ccccc1Br)N[C@@H]1CCN(c2ccc(C(F)(F)F)cn2)C1 [SB-705498]

pKb [2]: 7.2
Compound: O=C(Nc1ccccc1Br)N[C@@H]1CCN(c2cccc(C(F)(F)F)n2)C1

pKb [2]: 6.7
Compound: N#Cc1ccc(N2CC[C@@H](NC(=O)Nc3ccccc3Br)C2)nc1

CL (Liver microsomes): <= 4 ml/min/g
solubility [1]: < 100 µg/mL
pKb [2]: 8.1
Compound: O=C(Nc1ccccc1Br)N[C@@H]1CCN(c2ccc(F)c(F)c2)C1
